Source: US20180360940A1, “LISTERIA-BASED IMMUNOTHERAPY AND METHODS OF USE THEREOF” (priority 2015, published 2018)
Where two headings read alike, the source gives them in different places.

Assays:
[1] = test system: TC-1 tumor; assay: TC-1 tumor regression study, ADXS11-001 with or without ampicillin; format: in vivo, C57BL/6 female mice; settings: DP ADXS11-001 (HPV 1.0) IP, ampicillin 100 mg/kg IP at 4-hr, 6-hr, 24-hr
Protocol: FIG. 20A-B Results for ADXS11-001 therapy with our without early ampicillin treatment. TC1 tumor regression (FIG. 20A) and % survival (FIG. 20B).
A tumor regression study was initiated in C57BL/6 female mice using TC-1 lung epithelial cells to assess the therapeutic efficacy of different Lm treatment with or without ampicillin treatment and whether it alters the tumor microenvironment.
Tumor Inoculation: The tumor model used in this study is the TC-1 tumor model. TC-1 cells are cultured in complete medium. Complete medium for TC-1 cells: 450 ml RPMI 1640, 50 ml 10%FBS, 5 ml NEAA (100 uM), 5 ml L-Glutamine ([…]), and 5 ml Pen/strep (100 U/mL) penicillin+100 ug/mL streptomycin) G418 (400 ug/mL) (added to cells when splitting). Two days prior to implanting tumor cells in mice, TC-1 cells were sub-cultured in complete media. On the day of the experiment (Day 0), cells were trypsinized and washed twice with media. Cells were counted and re-suspended at a concentration of 1×10^5 cells/200 ul in PBS/mouse for injection. Tumor cells were injected subcutaneously in the right flank of each mouse. Tumors were measured twice a week until they reached a size of 12 mm in diameter. Once tumors met sacrifice criteria, mice were euthanized and tumors were excised and measured.
Vaccine/Ampicillin Treatment: On Day 6, when tumors are ˜5mm in size; vaccines and treatments began. […]

[2] = test system: TPSA23 tumor; assay: TPSA23 tumor regression study, ADXS31-142 with or without ampicillin; format: in vivo, C57BL/6 male mice; settings: DP ADXS31-142 (PSA 1.0) IP, ampicillin 100 mg/kg IP at 4-hr, 6-hr, 24-hr
Protocol: FIG. 22A-B Results for ADXS31-142 therapy with our without early ampicillin treatment. TC1 tumor regression (FIG. 22A) and % survival (FIG. 22B).
A tumor regression study was initiated in C57BL/6 male mice using TPSA23 prostate cancer cells to assess the therapeutic efficacy of different Lm treatment with or without ampicillin treatment.
Tumor Inoculation: The tumor model used in this study is the TPSA23 tumor model. TPSA23 cells are cultured in complete medium. Complete medium for TPSA23 cells: 430 ml DMEM with Glucose, 45 ml FBS, 25 ml Nu-Serum IV, 5 ml L-Glutamine, 5 ml Na-bicarbonate, 0.005 mg/ml Bovine Insulin—Insulin stock (2.5 mg/ml) is prepared in acidified water (10 ml water+100 ul glacial acetic acid) (Add to the flask while splitting cells—6.4 uL/8 mLs media, 12.8 uL/16 mLs media, 19.2 uL/24 mLs media, etc.), and 10 nM Dehydroisoandrosterone (DHA)—DHA stock (10 mM) is prepared in ethanol. (Add to the flask while splitting cells—140 uL/70 mLs media, 70 uL/35 mLs media, 35 uL/17.5 mLs media, etc.). Two days prior to implanting tumor cells in mice, TPSA23 cells are sub-cultured in complete media. […] Cells were counted and re-suspended at a concentration of 2×10^6 cells/200 ul in PBS/mouse for injection. […] Tumors are measured twice a week until they reach a size of 12 mm in diameter. Once tumors met sacrifice criteria, mice were euthanized and tumors were excised and measured. […]

[3] = 10 mg/mL in sterile H2O, cited from earlier work
[4] = test system: PSA-specific and SIINFEKL-specific immunity; assay: PSA- and […]-specific CD8 T cells after PSA-SVN Tag with early antibiotics; format: in vivo, C57BL/6 mice; settings: PSA-SVN Tag IP, spleens day 7
Protocol: FIGS. 17A-D Results from early time point administration of ampicillin at 2 hours, 4 hours, and 6 hours post-Lm vaccine. % PSA specific CD8 T cells (FIG. 17A), % […] specific CD8 T cells (FIG. 17B), # of PSA specific CD8 cells (FIG. 17C), and # of […] specific CD8 cells (FIG. 17D).
FIGS. 18A-B Splenocytes from early gentamicin treatment at 2 hours, 4 hours, or 6 hours +ampicillin 24 hour chase of LM-PSA-SVN treated mice. % PSA specific CD8 T cells (FIG. 18A) and % […] specific CD8 T cells (FIG. 18B).
An assay was performed to examine the generation of […]-specific and PSA-specific immunity in mice treated with ampicillin or gentamicin/ampicillin and immunized with PSA-SVN Tag. The […]-specific immune response was detected by pentamer staining using the known T cell epitopes for C57BL/6 mice, H-2 Db PSA65-73 ([…]) and H-2 Kb OVA257-264 ([…]).
Prime-Harvest with Ampicillin: On Day 0, all groups were infected with PSA-SVN Tag LM IP, and then ampicillin was administered at 100 mg/kg IP at various time points from hour 2, 4, 6, 24. All Animals (except negative control) were given 1 dose of ampicillin at 24 hours. 7 days after Day 0 infection, mice were sacrificed and spleens were harvested and analyzed for specific T-cell epitopes to H-2 Db PSA65-73 ([…]) and H-2 Kb OVA257-264 ([…]). […]

Compound	survival, difference between Lm treatment groups with or without ampicillin [1]	tumor regression, difference between Lm treatment groups with or without ampicillin [1]	survival, difference between Lm treatment groups with or without ampicillin [2]	tumor regression, difference between Lm treatment groups with or without ampicillin [2]	solution stability [3] [days]	PSA specific and SIINFEKL specific CD8 T cells, difference between groups ([4]; ampicillin 100 mg/kg IP at 2, 4, 6 hours plus 24 hours)	solution stability ([3]; 2-8 C)	solution stability ([3]; at 37 C) [days]	PSA specific and SIINFEKL specific CD8 T cells, difference between groups ([4]; gentamicin 5 mg/kg IP at 2, 4, 6 hours plus ampicillin 24 hour chase)
CC1(C)S[C@@H]2[C@H](NC(=O)[C@H](N)c3ccccc3)C(=O)N2[C@H]1C(=O)O [ampicillin]	No significant difference	No significant difference	No significant difference	No significant difference	3	No significant difference	–	–	–
gentamicin	–	–	–	–	–	–	months	5	No significant difference
